Columns and labels:
[1] = target: T1, MAP kinase-activated protein kinase 5 (Homo sapiens) (UniProt Q8IW41); assay: Inhibition of human full length PRAK expressed in baculovirus assessed as substrate phosphorylation using fluorescence-labelled peptides as substrate at 95 uM after 90 mins by microfluidic peptide phosphorylation assay
T1 sequence (whole entry): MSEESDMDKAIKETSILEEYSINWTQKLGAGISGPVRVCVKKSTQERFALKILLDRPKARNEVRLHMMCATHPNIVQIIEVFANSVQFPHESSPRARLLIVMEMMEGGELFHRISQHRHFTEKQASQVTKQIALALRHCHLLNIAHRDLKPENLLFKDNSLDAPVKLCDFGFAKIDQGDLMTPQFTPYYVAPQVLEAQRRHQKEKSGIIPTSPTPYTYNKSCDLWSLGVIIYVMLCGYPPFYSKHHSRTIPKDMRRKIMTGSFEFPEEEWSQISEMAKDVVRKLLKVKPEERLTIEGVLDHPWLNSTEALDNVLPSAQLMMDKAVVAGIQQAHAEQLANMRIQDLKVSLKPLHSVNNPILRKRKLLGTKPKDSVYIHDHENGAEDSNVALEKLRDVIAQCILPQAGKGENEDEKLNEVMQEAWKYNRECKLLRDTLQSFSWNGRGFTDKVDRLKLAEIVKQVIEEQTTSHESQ

[2] = target: Protein kinase C gamma type (Homo sapiens) (UniProt P05129); assay: Inhibition of human truncated PKC gamma expressed in baculovirus assessed as substrate phosphorylation using fluorescence-labelled peptides as substrate at 95 uM after 90 mins by microfluidic peptide phosphorylation assay
[3] = target: T2, Serine/threonine-protein kinase Sgk1 (Homo sapiens) (UniProt O00141); details: 0.1 uM
T2 sequence (whole entry): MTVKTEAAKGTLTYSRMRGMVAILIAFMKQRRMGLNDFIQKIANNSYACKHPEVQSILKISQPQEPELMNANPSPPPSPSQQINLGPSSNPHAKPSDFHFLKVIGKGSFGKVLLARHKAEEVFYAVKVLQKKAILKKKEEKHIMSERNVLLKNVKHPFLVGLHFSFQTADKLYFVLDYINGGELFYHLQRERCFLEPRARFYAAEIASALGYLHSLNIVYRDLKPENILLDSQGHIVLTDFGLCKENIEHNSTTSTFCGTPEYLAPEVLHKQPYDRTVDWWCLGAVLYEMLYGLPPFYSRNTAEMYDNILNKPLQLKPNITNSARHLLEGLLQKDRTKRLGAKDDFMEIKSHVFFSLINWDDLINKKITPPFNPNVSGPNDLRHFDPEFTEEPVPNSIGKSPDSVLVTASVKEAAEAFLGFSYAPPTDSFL
Description: Inhibition of human truncated SGK1 expressed in baculovirus assessed as substrate phosphorylation using fluorescence-labelled peptides as substrate at 0.1 uM after 90 mins by microfluidic peptide phosphorylation assay

[4] = target: T3, Mitogen-activated protein kinase 12 (Homo sapiens) (UniProt P53778); assay: Inhibition of human full length p38 gamma expressed in Escherichia coli cell assessed as substrate phosphorylation using fluorescence-labelled peptides as substrate at 0.2 uM after 90 mins by microfluidic peptide phosphorylation assay
T3 sequence (whole entry): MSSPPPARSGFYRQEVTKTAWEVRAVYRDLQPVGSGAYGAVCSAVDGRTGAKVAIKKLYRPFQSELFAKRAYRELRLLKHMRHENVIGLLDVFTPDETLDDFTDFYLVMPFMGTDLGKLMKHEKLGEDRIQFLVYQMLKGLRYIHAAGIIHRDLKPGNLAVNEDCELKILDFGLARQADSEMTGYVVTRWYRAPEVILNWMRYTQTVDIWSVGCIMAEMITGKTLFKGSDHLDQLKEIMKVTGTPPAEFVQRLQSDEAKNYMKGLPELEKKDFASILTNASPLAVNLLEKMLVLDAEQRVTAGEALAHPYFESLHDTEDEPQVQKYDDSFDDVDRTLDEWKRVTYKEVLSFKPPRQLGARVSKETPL

[5] = target: Fibroblast growth factor receptor 1 (Homo sapiens) (UniProt P11362); assay: Inhibition of human FGFR1 catalytic domain expressed in baculovirus assessed as substrate phosphorylation using fluorescence-labelled peptides as substrate at 2 uM after 90 mins by microfluidic peptide phosphorylation assay
[6] = target: T4, cGMP-dependent protein kinase 1 (Homo sapiens) (UniProt Q13976); assay: Inhibition of human full length PKG-1a expressed in baculovirus assessed as substrate phosphorylation using fluorescence-labelled peptides as substrate at 1000 uM after 90 mins by microfluidic peptide phosphorylation assay
T4 sequence (whole entry): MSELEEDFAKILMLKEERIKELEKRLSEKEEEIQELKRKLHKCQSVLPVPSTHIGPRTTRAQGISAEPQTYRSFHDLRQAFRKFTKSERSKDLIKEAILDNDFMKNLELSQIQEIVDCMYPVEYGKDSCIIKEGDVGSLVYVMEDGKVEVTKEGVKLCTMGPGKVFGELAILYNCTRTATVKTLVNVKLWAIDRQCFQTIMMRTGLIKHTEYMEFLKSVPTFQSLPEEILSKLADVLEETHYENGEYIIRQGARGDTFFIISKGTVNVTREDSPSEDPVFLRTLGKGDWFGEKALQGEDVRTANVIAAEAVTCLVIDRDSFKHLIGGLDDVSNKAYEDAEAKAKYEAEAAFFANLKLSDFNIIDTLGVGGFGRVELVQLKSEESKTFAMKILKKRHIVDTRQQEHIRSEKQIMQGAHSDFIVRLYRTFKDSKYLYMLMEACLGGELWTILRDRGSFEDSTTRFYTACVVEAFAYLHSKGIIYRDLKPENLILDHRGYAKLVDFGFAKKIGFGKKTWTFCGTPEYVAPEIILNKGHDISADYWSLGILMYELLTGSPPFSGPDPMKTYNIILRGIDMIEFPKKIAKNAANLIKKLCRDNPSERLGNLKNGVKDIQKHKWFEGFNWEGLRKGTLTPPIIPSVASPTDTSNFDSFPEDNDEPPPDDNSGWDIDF

Sequence of Fibroblast growth factor receptor 1 (Homo sapiens) (P11362 22-822 limits assumed): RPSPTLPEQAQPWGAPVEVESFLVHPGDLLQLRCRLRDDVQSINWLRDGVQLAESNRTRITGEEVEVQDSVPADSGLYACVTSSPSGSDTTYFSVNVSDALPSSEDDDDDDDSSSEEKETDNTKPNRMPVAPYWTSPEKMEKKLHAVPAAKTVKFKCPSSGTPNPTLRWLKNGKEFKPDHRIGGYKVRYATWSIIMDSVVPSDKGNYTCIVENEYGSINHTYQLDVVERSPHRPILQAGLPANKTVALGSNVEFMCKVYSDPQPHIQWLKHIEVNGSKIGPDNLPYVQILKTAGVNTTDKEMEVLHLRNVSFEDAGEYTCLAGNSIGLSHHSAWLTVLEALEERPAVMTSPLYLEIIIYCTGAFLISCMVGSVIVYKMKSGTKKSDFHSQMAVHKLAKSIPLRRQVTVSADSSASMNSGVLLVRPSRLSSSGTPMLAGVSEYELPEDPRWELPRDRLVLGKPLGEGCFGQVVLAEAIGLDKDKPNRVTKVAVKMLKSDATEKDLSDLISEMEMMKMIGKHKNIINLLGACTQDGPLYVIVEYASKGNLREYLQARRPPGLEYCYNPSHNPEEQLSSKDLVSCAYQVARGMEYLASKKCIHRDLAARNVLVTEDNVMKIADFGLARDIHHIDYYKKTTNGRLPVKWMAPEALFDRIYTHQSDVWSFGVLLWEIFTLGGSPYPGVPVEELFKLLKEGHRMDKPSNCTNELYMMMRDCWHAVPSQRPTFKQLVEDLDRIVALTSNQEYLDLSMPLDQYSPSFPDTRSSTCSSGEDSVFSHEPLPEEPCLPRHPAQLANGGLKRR

NCCc1ccc(-c2ncnc3[nH]cnc23)cc1 showed an inhibition [1] of 35% and an inhibition [2] of 71%.
Work on C[C@H](CN(C)C)Oc1nc(Nc2cc3cccc(Cl)c3cn2)cnc1C#N yielded an inhibition [3] of 0%.
Compound Clc1ccc(C2(c3ccc(-c4ncnc5[nH]cnc45)cc3)CCNCC2)cc1 has an inhibition [4] of 5%.
Compound NC1CCN(c2ncnc3[nH]ccc23)CC1 has an inhibition [5] of 1.5%.
Compound c1cnc2[nH]ccc2c1 has an inhibition [6] of 90.5%.
